This is an account of results in patent US11691962B2 (eXIthera Pharmaceuticals, Inc., priority 2018, dated 2023).

Type in all cases: biochemical
The target in one assay is Factor XIa (Homo sapiens (Human), UniProt P03951). The assay is described as follows: Factor XIa enzyme inhibition assay (dose response, fluorogenic AMC substrate). The following applies: read-out: hFXIa IC50. Put shortly: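 Human FXIa at 0.25 nM final with 50 μM final PyroGlu-Pro-Arg-AMC in 20 mM Hepes pH 7.4, 150 mM NaCl, 0.02% Tween 20. Two-fold serial compound dilutions; fluorescence read every minute for 30 min at 30° C. IC50 from a four-parameter Hill fit.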

For a further assay, the target named is Thrombin (Homo sapiens (Human), UniProt P00734). The assay is described as follows: Dose response assay for protease inhibitors: thrombin. The following applies: selectivity, thrombin over Factor XIa. Here is the method: (§1) • Assay buffer: 20 mM Hepes, pH 7.4; 150 mM NaCl; 0.02% Tween 20 • Compounds: 10 mM stocks in DMSO • Substrate: 20 mM Glp-Pro-Arg-AMC, 25 mg/2.3 mL H2O (store at +4° C.) [Factor XIa, thrombin, and trypsin] • 20 mM Pro-Phe-Arg-AMC (Bachem I-1295), 25 mg/2.2 mL H2O • or Boc-Leu-Gly-Arg-AMC (Bachem I-1105), 25 mg/2.07 mL H2O • (store at +4° C.) [Factor Xa] • Enzyme: Factor XIa; 0.25 μM in 50% glycerol (20 μg/mL) • Trypsin; 0.2 μM in 50% glycerol (4.8 μg/mL) • Thrombin; 0.2 μM in 50% glycerol (7.34 μg/mL) • Factor Xa; 0.2 μM in 50% glycerol (9.2 μg/mL) • These stocks are aliquoted (˜100 μL/aliquot) and stored at −20° C. Methods: • 1. Dilute the substrate to 100 μM in assay buffer (30 μL/6 mL). The enzyme is diluted to 0.5 nM just prior to use (12 μL/6 mL for Factor XIa; 15 μL/6 mL for all of the rest.) • 2. Pipette 50 μL of substrate into each well of the 96 well (12×8) microtiter plate. (Column 1 is used as the 100% activity control and receives no compound, and Column 12 is the blank and receives no enzyme.) Add an additional 46 μL to column 2. • 3. Pipette 4 μL of each compound into the appropriate well in column 2 of the plate (unknowns assayed in triplicate, standard assayed in duplicate). The final compound concentration will be […] of the stock. • 4. Serially two-fold dilute the compound by mixing the sample in column 2, removing 50 μL to the next well (column 3), mix and remove to column 4, etc. until column 11. After mixing column 11, remove 50 μL and discard. • 5. Pipette 50 μL of buffer into column 12. Initiate the reaction by adding 50 μL of enzyme solution to each well of columns 1-11 as rapidly as possible. • 6. Read the plate in a spectrophotometer (SpectraMax) at 30° C., wherein each well is measured every 60 s for 30 min. For Factor Xa assays, each well is measured every 1 min for a total of 60 min. • 7. For Factor XIa assays, the compounds are assayed, in duplicate, at 3 different starting concentrations, 20, 2, and 0.2 μM; 1:10, 1:100, and 1:1000 dilution of 10 mM stock or at 2, 0.2, and 0.02 μM; 1:100, 1:1000, and 1:10,000 dilution of 10 mM stock. Data for each concentration are combined for graphing and data fitting. • 8. Data can be used both for estimation of IC50 and for estimation of Kon.

In another assay the test system is Trypsin. In words: Dose response assay for protease inhibitors: trypsin. The following applies: selectivity, trypsin over Factor XIa. The method, then:
as §1

The target in a further assay is Factor Xa (Homo sapiens (Human), UniProt P00742). The assay is described as follows: Dose response assay for protease inhibitors: Factor Xa. To be noted: selectivity, Factor Xa over Factor XIa. The method, then:
as §1

SMILES strings stand for the structures.

Chain of Factor Xa (P00742 235-488): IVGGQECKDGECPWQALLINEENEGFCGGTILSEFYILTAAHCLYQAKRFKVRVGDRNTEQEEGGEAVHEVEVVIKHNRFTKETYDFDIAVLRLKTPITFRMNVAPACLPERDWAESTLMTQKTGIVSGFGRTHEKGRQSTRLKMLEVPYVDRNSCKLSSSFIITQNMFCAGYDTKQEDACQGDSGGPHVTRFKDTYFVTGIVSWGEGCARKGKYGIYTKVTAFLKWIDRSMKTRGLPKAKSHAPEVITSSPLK
Chain of Factor Xa (P00742 41-179 partner): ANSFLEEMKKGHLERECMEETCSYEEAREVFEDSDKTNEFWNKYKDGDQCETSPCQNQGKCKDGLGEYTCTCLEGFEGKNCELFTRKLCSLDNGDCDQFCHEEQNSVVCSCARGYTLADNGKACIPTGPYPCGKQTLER
Chain of Factor XIa (P03951 388-625): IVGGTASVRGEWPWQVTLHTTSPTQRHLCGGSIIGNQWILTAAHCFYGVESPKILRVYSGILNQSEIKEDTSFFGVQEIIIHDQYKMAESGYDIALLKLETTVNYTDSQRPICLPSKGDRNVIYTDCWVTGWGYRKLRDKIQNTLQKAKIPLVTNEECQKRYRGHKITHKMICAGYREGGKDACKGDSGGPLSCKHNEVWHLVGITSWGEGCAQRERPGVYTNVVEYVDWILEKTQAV
Chain of Factor XIa (P03951 19-387 partner): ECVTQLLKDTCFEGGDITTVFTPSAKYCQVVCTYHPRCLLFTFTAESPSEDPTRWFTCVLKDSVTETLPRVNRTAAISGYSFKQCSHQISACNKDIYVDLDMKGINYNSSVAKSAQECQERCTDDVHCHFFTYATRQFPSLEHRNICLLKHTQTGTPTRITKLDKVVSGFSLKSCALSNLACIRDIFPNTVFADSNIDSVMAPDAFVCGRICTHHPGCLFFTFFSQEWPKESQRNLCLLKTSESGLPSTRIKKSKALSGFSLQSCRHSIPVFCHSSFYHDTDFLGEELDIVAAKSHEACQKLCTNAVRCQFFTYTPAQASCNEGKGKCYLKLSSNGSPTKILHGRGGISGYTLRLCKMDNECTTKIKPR

Turning to `CN(C(=O)[C@@H]1[C@@H](Cc2ccnc(N)c2)C(=O)N1C(=O)NC(c1cccc(Cl)c1)C(F)(F)F)c1ccn(C)n1` (stereo in doubt) [Compound 1-38, (2S,3R)-3-((2-aminopyridin-4-yl)methyl)-N2-(1-methyl-1H-pyrazol-3-yl)-N1-((R)-1-(3-chlorophenyl)-2,2,2-trifluoroethyl)-N2-methyl-4-oxoazetidine-1,2-dicarboxamide], on Factor XIa, the IC50 was less than 0.01 µM. Moreover, at Thrombin, the “Ratio: Thrombin/FXIa” value is “G (“G” indicates 1-100)”. Also, the “Ratio: Trypsin/FXIa” value in the assay with Trypsin was “G (“G” indicates 1-100)”. Besides, the “Ratio: FXa/FXIa” value on Factor Xa is on record as “H (“H” indicates 101-1000)”.

In the case of `CN(C(=O)[C@@H]1[C@@H](Cc2ccnc(N)c2)C(=O)N1C(=O)NC(C1CCCCC1)C(F)(F)F)c1nccn1C` (stereo in doubt) [Compound 1-56, (2S,3R)-3-((2-aminopyridin-4-yl)methyl)-N2-(1-methyl-1H-imidazol-2-yl)-N1-((R)-1-cyclohexyl-2,2,2-trifluoroethyl)-N2-methyl-4-oxoazetidine-1,2-dicarboxamide], the IC50 on Factor XIa is less than 0.01 µM. Also, the “Ratio: Thrombin/FXIa” value at Thrombin was “H (“H” indicates 101-1000)”. The “Ratio: Trypsin/FXIa” value with Trypsin was “G (“G” indicates 1-100)”. Also, the “Ratio: FXa/FXIa” value at Factor Xa is on record as “I (“I” indicates > 500)”.

On to `CC[C@@H](NC(=O)N1C(=O)[C@H](Cc2ccnc(N)c2)[C@H]1C(=O)N(C)c1cncs1)c1ccccc1` [Compound 1-12, (2S,3R)-3-((2-aminopyridin-4-yl)methyl)-N2-(5-thiazolyl)-N1-((R)-1-phenylpropyl)-N2-methyl-4-oxoazetidine-1,2-dicarboxamide], for which, at Factor XIa, the IC50 was less than 0.01 µM. The “Ratio: Thrombin/FXIa” value at Thrombin was “H (“H” indicates 101-1000)”. In addition, the “Ratio: Trypsin/FXIa” value in the assay with Trypsin was “G (“G” indicates 1-100)”. On Factor Xa, the “Ratio: FXa/FXIa” value is listed as “H (“H” indicates 101-1000)”.

For `CCc1cccc([C@@H](CC)NC(=O)N2C(=O)[C@H](Cc3ccnc(N)c3)[C@H]2C(=O)N(C)c2cnn(C)c2)c1` [Compound 1-16, (2S,3R)-3-((2-aminopyridin-4-yl)methyl)-N2-(1-methyl-1H-pyrazol-4-yl)-N1-((R)-1-(3-ethylphenyl)propyl)-N2-methyl-4-oxoazetidine-1,2-dicarboxamide], the IC50 on Factor XIa is less than 0.01 µM. Also, the “Ratio: Thrombin/FXIa” value on Thrombin is recorded as “G (“G” indicates 1-100)”. Moreover, in the assay on Trypsin, the “Ratio: Trypsin/FXIa” value is on record as “G (“G” indicates 1-100)”. Moreover, on Factor Xa, the “Ratio: FXa/FXIa” value is “H (“H” indicates 101-1000)”.

In the case of `CC[C@@H](NC(=O)N1C(=O)[C@H](Cc2ccnc(N)c2)[C@H]1C(=O)N(C)c1cnsc1)c1ccccc1` [Compound 1-19, (2S,3R)-3-((2-aminopyridin-4-yl)methyl)-N2-(4-isothiazolyl)-N1-((R)-1-phenylpropyl)-N2-methyl-4-oxoazetidine-1,2-dicarboxamide], at Factor XIa, the IC50 was less than 0.01 µM. The “Ratio: Thrombin/FXIa” value at Thrombin is given as “G (“G” indicates 1-100)”. Besides, the “Ratio: Trypsin/FXIa” value in the assay on Trypsin is given as “G (“G” indicates 1-100)”. The “Ratio: FXa/FXIa” value at Factor Xa is reported as “H (“H” indicates 101-1000)”.

Turning to `CC[C@@H](NC(=O)N1C(=O)[C@H](Cc2ccnc(N)c2)[C@H]1C(=O)N(C)c1cn(C)cn1)c1cccc(Cl)c1` [Compound 1-25, (2S,3R)-3-((2-aminopyridin-4-yl)methyl)-N2-(1-methyl-1H-imidazol-4-yl)-N1-((R)-1-(3-chlorophenyl)propyl)-N2-methyl-4-oxoazetidine-1,2-dicarboxamide], the IC50 on Factor XIa is less than 0.01 µM. For the same compound, the “Ratio: Thrombin/FXIa” value at Thrombin is “G (“G” indicates 1-100)”. Further, the “Ratio: Trypsin/FXIa” value in the assay with Trypsin was “G (“G” indicates 1-100)”. Further, the “Ratio: FXa/FXIa” value at Factor Xa is on record as “H (“H” indicates 101-1000)”.

With `CN(C(=O)[C@@H]1[C@@H](Cc2ccnc(N)c2)C(=O)N1C(=O)NCc1cccc(Cl)c1)c1ccn(C)n1` [Compound 1-26, (2S,3R)-3-((2-aminopyridin-4-yl)methyl)-N2-(1-methyl-1H-pyrazol-3-yl)-N1-((3-chlorophenyl)methyl)-N2-methyl-4-oxoazetidine-1,2-dicarboxamide], the IC50 on Factor XIa lay in the range of 0.01 to 0.1 µM. Besides, the “Ratio: Thrombin/FXIa” value at Thrombin was “G (“G” indicates 1-100)”. Further, the “Ratio: Trypsin/FXIa” value with Trypsin is reported as “G (“G” indicates 1-100)”. The “Ratio: FXa/FXIa” value at Factor Xa is “H (“H” indicates 101-1000)”.

For the compound `CC[C@@H](NC(=O)N1C(=O)[C@H](Cc2ccnc(N)c2)[C@H]1C(=O)N(C)c1cccs1)c1cccc(Cl)c1` [Compound 1-28, (2S,3R)-3-((2-aminopyridin-4-yl)methyl)-N2-(thiophen-2-yl)-N1-((R)-1-(3-chlorophenyl)propyl)-N2-methyl-4-oxoazetidine-1,2-dicarboxamide], the IC50 on Factor XIa is less than 0.01 µM. The “Ratio: Thrombin/FXIa” value at Thrombin was “H (“H” indicates 101-1000)”. For the same compound, the “Ratio: Trypsin/FXIa” value in the assay on Trypsin is on record as “G (“G” indicates 1-100)”. The “Ratio: FXa/FXIa” value on Factor Xa is on record as “G (“G” indicates 1-100)”.

Turning to `CN(C(=O)[C@@H]1[C@@H](Cc2ccnc(N)c2)C(=O)N1C(=O)N[C@@H](c1ccccc1)C(F)(F)F)c1ccn(C)n1` [Compound 1-31, (2S,3R)-3-((2-aminopyridin-4-yl)methyl)-N2-(1-methyl-1H-pyrazol-3-yl)-N1-((S)-1-phenyl-2,2,2-trifluoroethyl)-N2-methyl-4-oxoazetidine-1,2-dicarboxamide], the IC50 at Factor XIa fell in the range of 0.01 to 0.1 µM. For the same compound, the “Ratio: Thrombin/FXIa” value at Thrombin was “G (“G” indicates 1-100)”. Moreover, in the assay with Trypsin, the “Ratio: Trypsin/FXIa” value is “G (“G” indicates 1-100)”. For the same compound, at Factor Xa, the “Ratio: FXa/FXIa” value was “H (“H” indicates 101-1000)”.

On to `CC[C@@H](NC(=O)N1C(=O)[C@H](Cc2ccnc(NC)c2)[C@H]1C(=O)N(C)c1ccn(C)n1)c1cccc(Cl)c1` [Compound 1-37, (2S,3R)-3-((2-methylaminopyridin-4-yl)methyl)-N2-(1-methyl-1H-pyrazol-3-yl)-N1-((R)-1-(3-chlorophenyl)propyl)-N2-methyl-4-oxoazetidine-1,2-dicarboxamide], for which, at Factor XIa, the IC50 lay in the range of 0.01 to 0.1 µM. Moreover, on Thrombin, the “Ratio: Thrombin/FXIa” value was “H (“H” indicates 101-1000)”. Further, the “Ratio: Trypsin/FXIa” value in the assay on Trypsin is “G (“G” indicates 1-100)”. For the same compound, the “Ratio: FXa/FXIa” value on Factor Xa is “H (“H” indicates 101-1000)”.

Consider `CC[C@@H](NC(=O)N1C(=O)[C@H](Cc2ccnc(NC)c2)[C@H]1C(=O)N(C)c1cccs1)c1cccc(Cl)c1` [Compound 1-44, (2S,3R)-3-((2-methylaminopyridin-4-yl)methyl)-N2-(thiophen-2-yl)-N1-((R)-1-(3-chlorophenyl)propyl)-N2-methyl-4-oxoazetidine-1,2-dicarboxamide], for which the IC50 at Factor XIa was less than 0.01 µM. Further, the “Ratio: Thrombin/FXIa” value at Thrombin was “H (“H” indicates 101-1000)”. For the same compound, in the assay with Trypsin, the “Ratio: Trypsin/FXIa” value is on record as “G (“G” indicates 1-100)”. Besides, the “Ratio: FXa/FXIa” value on Factor Xa is reported as “H (“H” indicates 101-1000)”.

With `CC[C@@H](NC(=O)N1C(=O)[C@H](Cc2cc(C)nc(N)c2)[C@H]1C(=O)N(C)c1cn(C)cn1)c1ccccc1` [Compound 1-52, (2S,3R)-3-((2-amino-6-methylpyridin-4-yl)methyl)-N2-(1-methyl-1H-imidazol-4-yl)-N1-((R)-1-phenylpropyl)-N2-methyl-4-oxoazetidine-1,2-dicarboxamide], the IC50 on Factor XIa lay in the range of 0.01 to 0.1 µM. At Thrombin, the “Ratio: Thrombin/FXIa” value is on record as “G (“G” indicates 1-100)”. Moreover, the “Ratio: Trypsin/FXIa” value with Trypsin was “G (“G” indicates 1-100)”. Moreover, the “Ratio: FXa/FXIa” value on Factor Xa is given as “H (“H” indicates 101-1000)”.

As for `CC[C@@H](NC(=O)N1C(=O)[C@H](Cc2ccnc(N)c2)[C@H]1C(=O)N(C)c1cnn(C)c1)C1CCCCC1` [Compound 1-69, (2S,3R)-3-((2-aminopyridin-4-yl)methyl)-N2-(1-methyl-1H-pyrazol-4-yl)-N1-((R)-1-cyclohexylpropyl)-N2-methyl-4-oxoazetidine-1,2-dicarboxamide], the IC50 at Factor XIa lay within 0.01 to 0.1 µM. At Thrombin, the “Ratio: Thrombin/FXIa” value is given as “G (“G” indicates 1-100)”. For the same compound, in the assay with Trypsin, the “Ratio: Trypsin/FXIa” value is recorded as “G (“G” indicates 1-100)”. In addition, at Factor Xa, the “Ratio: FXa/FXIa” value was “H (“H” indicates 101-1000)”.

As usually defined, the IC50 is the concentration at which inhibition is half-maximal.
